Reference: publication PMC4770715, “LIM kinase inhibitors disrupt mitotic microtubule organization and impair tumor cell proliferation” (Oncotarget, 2015)

How the values were obtained:
Assay in all cases: biochemical
Parameters in all cases: KINOMEscan active-site competition binding, percent of control (100 = no competition)
Conditions in all cases: competition binding, percent control
CHEK1 = CHEK1 (Homo sapiens, UniProt O14757)
EPHA2 = EPHA2 (Homo sapiens, UniProt P29317)
FGFR1 = FGFR1 (Homo sapiens, UniProt P11362)
HCK = HCK (Homo sapiens, UniProt P08631)
IRAK4 = IRAK4 (Homo sapiens, UniProt Q9NWZ3)
LCK = LCK (Homo sapiens, UniProt P06239)
MAK = MAK (Homo sapiens, UniProt P20794)
MAP4K4 = MAP4K4 (Homo sapiens, UniProt O95819)
MET(Y1235D) = MET(Y1235D) (Homo sapiens, UniProt P08581, Y1235D)
NEK1 = NEK1 (Homo sapiens, UniProt Q96PY6)
NEK7 = NEK7 (Homo sapiens, UniProt Q8TDX7)
PFTAIRE2 = biological target: T1, PFTAIRE2 (Homo sapiens, UniProt Q96Q40)
T1 construct: gene CDK15

PIK3CA(E545K) = PIK3CA(E545K) (Homo sapiens, UniProt P42336, E545K)
PIK3CA(Q546K) = PIK3CA(Q546K) (Homo sapiens, UniProt P42336, Q546K)
PIP5K1C = PIP5K1C (Homo sapiens, UniProt O60331)
PKAC-beta = biological target: T2, PKAC-beta (Homo sapiens, UniProt P22694)
T2 construct: gene PRKACB

PRKCD = PRKCD (Homo sapiens, UniProt Q05655)
RAF1 = RAF1 (Homo sapiens, UniProt P04049)
SYK = SYK (Homo sapiens, UniProt P43405)
TEC = TEC (Homo sapiens, UniProt P42680)
TIE2 = biological target: T3, TIE2 (Homo sapiens, UniProt Q02763)
T3 construct: gene TEK

p38-alpha = biological target: T4, p38-alpha (Homo sapiens, UniProt Q16539)
T4 construct: gene MAPK14

p38-gamma = biological target: T5, p38-gamma (Homo sapiens, UniProt P53778)
T5 construct: gene MAPK12

RAF1, sequence (P04049 whole entry): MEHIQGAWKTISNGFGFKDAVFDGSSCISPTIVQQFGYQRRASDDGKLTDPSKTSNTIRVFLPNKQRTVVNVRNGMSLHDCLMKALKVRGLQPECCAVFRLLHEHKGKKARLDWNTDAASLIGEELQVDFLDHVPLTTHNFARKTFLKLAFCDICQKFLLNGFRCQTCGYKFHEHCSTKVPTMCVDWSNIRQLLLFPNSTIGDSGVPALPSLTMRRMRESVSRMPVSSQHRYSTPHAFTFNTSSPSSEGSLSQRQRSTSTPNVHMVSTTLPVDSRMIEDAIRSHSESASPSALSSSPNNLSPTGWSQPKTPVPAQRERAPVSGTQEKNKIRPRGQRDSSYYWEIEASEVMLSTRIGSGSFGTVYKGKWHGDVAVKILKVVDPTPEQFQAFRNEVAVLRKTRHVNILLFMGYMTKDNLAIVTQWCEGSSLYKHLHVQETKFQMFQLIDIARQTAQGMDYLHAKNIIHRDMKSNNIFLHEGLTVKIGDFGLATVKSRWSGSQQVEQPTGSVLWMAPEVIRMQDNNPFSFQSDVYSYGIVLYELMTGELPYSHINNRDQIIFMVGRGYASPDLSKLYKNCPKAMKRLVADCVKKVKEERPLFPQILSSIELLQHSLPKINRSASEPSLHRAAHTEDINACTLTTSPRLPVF
CHEK1, sequence (O14757 whole entry): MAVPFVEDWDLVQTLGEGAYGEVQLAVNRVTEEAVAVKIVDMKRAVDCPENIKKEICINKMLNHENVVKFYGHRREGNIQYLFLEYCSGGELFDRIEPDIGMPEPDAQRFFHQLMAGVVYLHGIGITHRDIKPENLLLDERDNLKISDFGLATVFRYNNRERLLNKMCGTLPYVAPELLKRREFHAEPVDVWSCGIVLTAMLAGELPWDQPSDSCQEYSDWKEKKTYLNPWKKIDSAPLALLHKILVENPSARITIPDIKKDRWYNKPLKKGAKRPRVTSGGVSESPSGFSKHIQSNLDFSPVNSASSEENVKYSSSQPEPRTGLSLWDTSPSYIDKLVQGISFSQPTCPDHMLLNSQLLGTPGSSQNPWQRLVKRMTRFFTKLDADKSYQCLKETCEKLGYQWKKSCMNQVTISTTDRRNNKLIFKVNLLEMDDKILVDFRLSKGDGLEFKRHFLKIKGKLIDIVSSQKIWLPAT
NEK7, sequence (Q8TDX7 whole entry): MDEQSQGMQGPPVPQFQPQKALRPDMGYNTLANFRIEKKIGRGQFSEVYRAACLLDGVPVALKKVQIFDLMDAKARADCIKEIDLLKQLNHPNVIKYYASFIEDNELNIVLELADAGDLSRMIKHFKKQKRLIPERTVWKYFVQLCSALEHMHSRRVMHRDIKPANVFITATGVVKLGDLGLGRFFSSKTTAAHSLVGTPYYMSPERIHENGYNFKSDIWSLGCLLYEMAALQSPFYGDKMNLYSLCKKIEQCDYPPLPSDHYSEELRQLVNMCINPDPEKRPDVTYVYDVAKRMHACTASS
T1 sequence (Q96Q40 whole entry): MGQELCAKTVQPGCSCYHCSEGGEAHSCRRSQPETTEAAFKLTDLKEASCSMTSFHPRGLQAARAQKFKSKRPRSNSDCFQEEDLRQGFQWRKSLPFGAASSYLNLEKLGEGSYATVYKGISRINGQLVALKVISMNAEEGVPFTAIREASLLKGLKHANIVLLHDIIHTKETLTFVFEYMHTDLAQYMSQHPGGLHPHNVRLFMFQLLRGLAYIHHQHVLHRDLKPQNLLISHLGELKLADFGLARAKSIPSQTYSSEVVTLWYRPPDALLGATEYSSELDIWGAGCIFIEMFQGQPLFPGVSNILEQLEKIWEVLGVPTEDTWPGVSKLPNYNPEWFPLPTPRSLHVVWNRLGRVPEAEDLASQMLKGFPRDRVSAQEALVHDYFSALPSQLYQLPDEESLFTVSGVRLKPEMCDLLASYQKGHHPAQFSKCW
T3 sequence (Q02763 whole entry): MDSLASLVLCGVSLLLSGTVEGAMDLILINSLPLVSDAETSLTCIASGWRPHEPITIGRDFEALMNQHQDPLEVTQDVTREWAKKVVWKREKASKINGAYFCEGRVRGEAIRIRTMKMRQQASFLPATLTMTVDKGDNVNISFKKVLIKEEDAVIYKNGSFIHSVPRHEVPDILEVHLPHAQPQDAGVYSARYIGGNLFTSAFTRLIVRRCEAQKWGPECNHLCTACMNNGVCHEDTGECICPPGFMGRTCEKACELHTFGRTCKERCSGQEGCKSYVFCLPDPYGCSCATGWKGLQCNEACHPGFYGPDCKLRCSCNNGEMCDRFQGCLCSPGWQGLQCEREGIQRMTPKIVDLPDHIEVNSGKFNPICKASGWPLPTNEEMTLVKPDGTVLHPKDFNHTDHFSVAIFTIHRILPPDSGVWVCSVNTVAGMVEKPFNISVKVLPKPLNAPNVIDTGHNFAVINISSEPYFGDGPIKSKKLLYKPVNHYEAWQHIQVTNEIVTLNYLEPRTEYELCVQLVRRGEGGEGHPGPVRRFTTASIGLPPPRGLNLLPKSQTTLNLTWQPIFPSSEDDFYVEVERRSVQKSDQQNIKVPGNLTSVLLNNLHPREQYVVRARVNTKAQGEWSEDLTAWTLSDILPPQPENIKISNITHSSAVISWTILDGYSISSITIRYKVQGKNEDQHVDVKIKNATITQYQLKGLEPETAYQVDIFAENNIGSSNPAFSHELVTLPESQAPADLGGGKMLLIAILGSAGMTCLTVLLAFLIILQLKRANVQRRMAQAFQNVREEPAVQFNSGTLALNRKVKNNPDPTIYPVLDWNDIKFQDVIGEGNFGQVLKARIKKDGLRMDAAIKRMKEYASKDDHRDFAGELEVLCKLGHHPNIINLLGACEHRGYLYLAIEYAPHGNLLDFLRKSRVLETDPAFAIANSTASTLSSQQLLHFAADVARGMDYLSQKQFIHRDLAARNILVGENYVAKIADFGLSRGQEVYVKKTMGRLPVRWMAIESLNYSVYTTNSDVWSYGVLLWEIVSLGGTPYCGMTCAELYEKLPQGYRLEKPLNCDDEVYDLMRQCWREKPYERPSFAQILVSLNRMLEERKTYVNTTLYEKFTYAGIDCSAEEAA
HCK, sequence (P08631 whole entry): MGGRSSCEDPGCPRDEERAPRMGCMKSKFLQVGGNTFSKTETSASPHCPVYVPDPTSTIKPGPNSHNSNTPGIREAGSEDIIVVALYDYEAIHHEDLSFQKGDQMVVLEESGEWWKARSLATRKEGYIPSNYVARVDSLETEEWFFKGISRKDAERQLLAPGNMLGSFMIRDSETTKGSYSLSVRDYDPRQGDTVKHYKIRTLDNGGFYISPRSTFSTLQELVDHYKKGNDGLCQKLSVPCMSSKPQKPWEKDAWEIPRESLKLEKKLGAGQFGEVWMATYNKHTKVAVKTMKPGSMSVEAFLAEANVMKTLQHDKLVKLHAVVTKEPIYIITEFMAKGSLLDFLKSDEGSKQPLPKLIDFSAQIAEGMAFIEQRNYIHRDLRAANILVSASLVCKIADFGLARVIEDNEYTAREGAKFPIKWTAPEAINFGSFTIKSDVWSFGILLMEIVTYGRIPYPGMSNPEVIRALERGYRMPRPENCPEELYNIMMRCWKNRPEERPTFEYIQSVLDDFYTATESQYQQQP
MET(Y1235D), sequence (P08581 whole entry Y1235D): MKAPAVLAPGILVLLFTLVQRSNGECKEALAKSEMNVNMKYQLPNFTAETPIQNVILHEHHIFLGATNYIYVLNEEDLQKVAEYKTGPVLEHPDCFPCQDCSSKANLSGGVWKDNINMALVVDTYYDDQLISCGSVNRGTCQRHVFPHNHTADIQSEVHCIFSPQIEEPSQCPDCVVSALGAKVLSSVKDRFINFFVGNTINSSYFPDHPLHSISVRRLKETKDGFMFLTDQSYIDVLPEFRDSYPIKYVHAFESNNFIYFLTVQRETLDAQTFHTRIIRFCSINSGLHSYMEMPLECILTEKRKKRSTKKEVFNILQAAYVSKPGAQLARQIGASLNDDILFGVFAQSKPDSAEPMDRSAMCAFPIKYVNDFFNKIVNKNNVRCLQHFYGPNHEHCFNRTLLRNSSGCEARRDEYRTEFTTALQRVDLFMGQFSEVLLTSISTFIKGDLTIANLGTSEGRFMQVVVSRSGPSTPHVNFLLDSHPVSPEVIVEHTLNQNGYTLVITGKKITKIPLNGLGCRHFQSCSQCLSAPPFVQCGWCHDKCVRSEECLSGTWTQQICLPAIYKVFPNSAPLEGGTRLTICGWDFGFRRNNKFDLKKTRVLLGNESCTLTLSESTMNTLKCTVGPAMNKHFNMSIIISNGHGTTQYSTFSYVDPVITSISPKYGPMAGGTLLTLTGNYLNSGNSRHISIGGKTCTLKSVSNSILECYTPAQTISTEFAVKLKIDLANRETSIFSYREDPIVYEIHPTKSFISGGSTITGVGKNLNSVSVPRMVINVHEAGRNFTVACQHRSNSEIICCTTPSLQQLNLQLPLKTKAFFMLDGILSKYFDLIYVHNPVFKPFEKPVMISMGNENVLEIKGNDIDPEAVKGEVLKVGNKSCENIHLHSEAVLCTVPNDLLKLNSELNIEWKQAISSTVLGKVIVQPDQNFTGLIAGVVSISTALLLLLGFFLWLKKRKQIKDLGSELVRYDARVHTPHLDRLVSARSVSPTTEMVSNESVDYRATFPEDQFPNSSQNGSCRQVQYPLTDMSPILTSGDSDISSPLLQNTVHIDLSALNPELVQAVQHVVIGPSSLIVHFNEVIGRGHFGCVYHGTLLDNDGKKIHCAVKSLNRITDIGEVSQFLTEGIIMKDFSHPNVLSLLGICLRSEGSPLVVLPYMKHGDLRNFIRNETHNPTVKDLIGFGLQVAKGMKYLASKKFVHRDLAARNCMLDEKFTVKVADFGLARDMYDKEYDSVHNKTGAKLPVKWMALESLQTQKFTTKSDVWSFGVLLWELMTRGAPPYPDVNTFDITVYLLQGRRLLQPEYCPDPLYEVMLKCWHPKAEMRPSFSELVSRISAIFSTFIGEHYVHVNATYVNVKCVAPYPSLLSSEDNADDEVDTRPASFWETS

Row | Structure (SMILES) | remaining binding at 10 µM (CHEK1) [%] | remaining binding at 10 µM (EPHA2) [%] | remaining binding at 10 µM (FGFR1) [%] | remaining binding at 10 µM (HCK) [%] | remaining binding at 10 µM (IRAK4) [%] | remaining binding at 10 µM (LCK) [%] | remaining binding at 10 µM (MAK) [%] | remaining binding at 10 µM (MAP4K4) [%] | remaining binding at 10 µM (MET(Y1235D)) [%] | remaining binding at 10 µM (NEK1) [%] | remaining binding at 10 µM (NEK7) [%] | remaining binding at 10 µM (PFTAIRE2) [%] | remaining binding at 10 µM (PIK3CA(E545K)) [%] | remaining binding at 10 µM (PIK3CA(Q546K)) [%] | remaining binding at 10 µM (PIP5K1C) [%] | remaining binding at 10 µM (PKAC-beta) [%] | remaining binding at 10 µM (PRKCD) [%] | remaining binding at 10 µM (RAF1) [%] | remaining binding at 10 µM (SYK) [%] | remaining binding at 10 µM (TEC) [%] | further results
1 | COc1ccc(-c2cnccc2-c2cnc(NC(=O)C(C)C)s2)c(C(F)(F)F)c1 [CRT0105446, N-{5-[3-(4-Methoxy-2-trifluoromethyl-phenyl)-pyridin-4-yl]-hiazol-2-yl}-isobutyramide] | 100 | 100 | 98 | 100 | 100 | 100 | 0.6 | 68 | 96 | 100 | 100 | 18 | 97 | 100 | 60 | 100 | 90 | 100 | 100 | 100 | remaining binding at 10 µM (TIE2): 87%; remaining binding at 10 µM (p38-alpha): 93%; remaining binding at 10 µM (p38-gamma): 100%
2 | Cc1ccc(-c2cnccc2-c2cnc(Nc3ccc(O)cc3)s2)c(Cl)c1 [CRT0105950, 4-{5-[3-(2-Chloro-4-methyl-phenyl)-pyridin-4-yl]-thiazol-2-ylamino}-phenol] | 88 | 70 | 5 | 94 | 80 | 20 | 2 | 11 | 14 | 81 | 100 | 18 | 100 | 100 | 100 | 44 | 76 | 85 | 100 | 100 | remaining binding at 10 µM (TIE2): 44%; remaining binding at 10 µM (p38-alpha): 87%; remaining binding at 10 µM (p38-gamma): 100%
